# Data published in US20230138177A1 (priority 2020, published 2023).
# Key:
# [1] = target: T1, DYRK1B (Homo sapiens, UniProt Q9Y463); type: cell-based; set-up: expressed in transfected cells; host or cells: glioma cells (U87)
# [2] = test system: HIF2α; type: cell-based, human
# [3] = test system: DYRK1A; type: cell-based, human
# [4] = test system: DYRK4
# [5] = test system: GSK3β; type: biochemical, human
# [6] = test system: VCB-CUL2 complex; type: binding
# [7] = test system: DYRK1B; type: cell-based, human
# [8] = test system: GSK3β; type: cell-based, human
# [9] = target: T1, DYRK1B; type: biochemical; set-up: expressed in transfected cells; host or cells: HEK293T or U87 cells; immunoprecipitate used in vitro; conditions: FLAG-DYRK1B from cells treated with harmine 10 μM or CX-4945 1 μM for 8 hours
# [10] = target: T2, DYRK1B (Homo sapiens, UniProt Q9Y463, P333A); type: cell-based
# T2 construct: expressed in transfected cells; host or cells: glioma cells (U87)
# T2 sequence (Q9Y463 whole entry P333A): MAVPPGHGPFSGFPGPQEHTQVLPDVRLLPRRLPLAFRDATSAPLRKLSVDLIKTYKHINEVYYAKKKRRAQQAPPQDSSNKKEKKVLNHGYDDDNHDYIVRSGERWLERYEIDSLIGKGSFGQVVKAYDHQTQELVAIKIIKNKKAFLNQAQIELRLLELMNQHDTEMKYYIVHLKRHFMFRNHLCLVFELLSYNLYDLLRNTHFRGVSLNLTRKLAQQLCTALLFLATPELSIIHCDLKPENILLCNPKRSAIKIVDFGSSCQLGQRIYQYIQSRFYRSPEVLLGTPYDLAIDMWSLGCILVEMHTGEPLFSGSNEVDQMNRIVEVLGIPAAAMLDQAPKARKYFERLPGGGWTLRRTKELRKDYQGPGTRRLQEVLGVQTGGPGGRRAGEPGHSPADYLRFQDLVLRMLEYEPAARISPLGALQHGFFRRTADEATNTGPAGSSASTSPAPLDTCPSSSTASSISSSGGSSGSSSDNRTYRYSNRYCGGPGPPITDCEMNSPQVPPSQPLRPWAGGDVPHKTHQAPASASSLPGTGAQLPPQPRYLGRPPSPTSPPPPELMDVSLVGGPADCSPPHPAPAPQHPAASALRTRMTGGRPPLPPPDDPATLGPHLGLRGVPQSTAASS
# T1 sequence (Q9Y463 whole entry): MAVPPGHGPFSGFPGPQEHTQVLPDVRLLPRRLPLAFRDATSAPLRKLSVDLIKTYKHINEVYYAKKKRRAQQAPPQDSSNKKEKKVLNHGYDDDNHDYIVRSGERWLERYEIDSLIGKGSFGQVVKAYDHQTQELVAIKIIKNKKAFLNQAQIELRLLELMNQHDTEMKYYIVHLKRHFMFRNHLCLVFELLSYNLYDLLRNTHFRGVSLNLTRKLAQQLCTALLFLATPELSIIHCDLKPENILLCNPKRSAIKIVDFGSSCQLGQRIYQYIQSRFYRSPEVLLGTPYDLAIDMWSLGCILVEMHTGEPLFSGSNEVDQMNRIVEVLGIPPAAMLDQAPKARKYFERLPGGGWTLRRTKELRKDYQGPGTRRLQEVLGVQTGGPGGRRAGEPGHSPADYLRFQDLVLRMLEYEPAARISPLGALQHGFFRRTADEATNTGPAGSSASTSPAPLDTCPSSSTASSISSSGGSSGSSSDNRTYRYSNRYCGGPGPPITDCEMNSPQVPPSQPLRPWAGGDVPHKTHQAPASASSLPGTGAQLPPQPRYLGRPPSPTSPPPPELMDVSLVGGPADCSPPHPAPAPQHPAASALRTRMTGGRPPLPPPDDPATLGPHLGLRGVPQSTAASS
# Chain of GSK3β (P49841 whole entry): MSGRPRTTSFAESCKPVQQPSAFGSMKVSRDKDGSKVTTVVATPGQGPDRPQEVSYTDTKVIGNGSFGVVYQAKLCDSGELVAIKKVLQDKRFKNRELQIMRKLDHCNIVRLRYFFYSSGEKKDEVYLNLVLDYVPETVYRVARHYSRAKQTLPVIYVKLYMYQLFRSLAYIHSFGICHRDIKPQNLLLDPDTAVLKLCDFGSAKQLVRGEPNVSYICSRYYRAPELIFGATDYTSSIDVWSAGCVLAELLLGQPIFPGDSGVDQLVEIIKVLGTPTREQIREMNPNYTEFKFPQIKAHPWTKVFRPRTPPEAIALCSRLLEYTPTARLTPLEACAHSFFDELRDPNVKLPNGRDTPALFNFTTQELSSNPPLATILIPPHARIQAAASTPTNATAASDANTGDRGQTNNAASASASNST
Compound,proline hydroxylation on DYRK1 kinase [1],prolyl hydroxylation of DYRK1B [1],tyrosine autophosphorylation of DYRK1B [1],proline hydroxylation on HIF2-α [2],prolyl-hydroxylation of HIF2α [2],prolyl hydroxylation of DYRK1A [3],tyrosine autophosphorylation of DYRK1A [3],prolyl hydroxylation of DYRK4 [4],tyrosine autophosphorylation of DYRK4 [4],GSK3β-mediated phosphorylation of GST-c-MYC [5],ID2-mediated dissociation of CUL2 from VCB [6],VHL-HIF2α interaction [6],prolyl hydroxylation of DYRK1B [7],tyrosine autophosphorylation of DYRK1B [7],prolyl hydroxylation of GSK3β [8],tyrosine autophosphorylation of GSK3β [8],phosphorylation of the ID2-T27 substrate [9],prolyl hydroxylation of DYRK1B-P333A [10],tyrosine auto-phosphorylation of DYRK1B-P333A [10]
CoCl2,complete elimination,caused loss,caused loss,complete elimination,prevented,abolished,abolished,caused loss,caused loss,abolished,elicited,disrupted,abolished,abolished,caused loss,caused loss,,,
COc1ccc2c(c1)[nH]c1c(C)nccc12 [harmine],,failed to perturb,severely impairing,,,,,,,,,,,,,,severely impairing,,
"COC(=O)CNC(=O)C(=O)OC [DMOG, dimethyloxalylglycine]",,caused loss,caused loss,,,,,,,,,,,,,,,caused loss,caused loss
